Experimental data: patent US9113629B2, “4-amino-6-(4-substituted-phenyl)-picolinates and 6-amino-2-(4-substituted-phenyl)-pyrimidine-4-carboxylates and their use as herbicides” (DOW AGROSCIENCES LLC, priority 2013, dated 2015)

Experiments:
[1] = tested on: LOLSS: ryegrass including, Italian ryegrass (Lolium multiflorum), rigid ryegrass (Lolium rigidum), annual ryegrass (Lolium multiflorum subsp. Gaudini); test: Post-emergent Test III, herbicidal activity in wheat and barley; format: in vivo; settings: Table 9, probit analysis, 21 d; for GR50 LOLSS: dose for 50 percent growth reduction; for GR80 LOLSS: dose for 80 percent growth reduction
Experimental: (§1) Post-emergent Test III. Seeds of the desired test plant species were planted in Sun Gro MetroMix® 306 planting mixture, which typically has a pH of 6.0 to 6.8 and an organic matter content of about 30 percent, in plastic pots with a surface area of 103.2 square centimeters (cm^2). When required to ensure good germination and healthy plants, a fungicide treatment and/or other chemical or physical treatment was applied. The plants were grown for 7-36 days (d) in a greenhouse with an approximate 14 hour (h) photoperiod which was maintained at about 18° C. during the day and 17° C. during the night. Nutrients and water were added on a regular basis and supplemental lighting was provided with overhead metal halide 1000-Watt lamps as necessary. The plants were employed for testing when they reached the second or third true leaf stage.
(§2) A weighed amount, determined by the highest rate to be tested, of each test compound was placed in a 25 mL glass vial and was dissolved in 4 mL of a 97:3 v/v mixture of acetone and DMSO to obtain concentrated stock solutions. […] The concentrated stock solutions obtained were diluted with 20 mL of an aqueous mixture containing acetone, water, isopropyl alcohol, DMSO, Agri-Dex crop oil concentrate, and X-77 surfactant in a 48:39:10:1.5:1.5:0.02 v/v ratio to obtain spray solutions containing the highest application rates. Additional application rates were obtained by serial dilution of 12 mL of the high rate solution into a solution containing 2 mL of 97:3 v/v mixture of acetone and DMSO and 10 mL of an aqueous mixture containing acetone, water, isopropyl alcohol, DMSO, Agri-Dex crop oil concentrate, and X-77 surfactant in a 48:39:10:1.5:1.5:0.02 v/v ratio to obtain ½×, ¼×, ⅛× and 1/16× rates of the high rate. Compound requirements are based upon a 12 mL application volume at a rate of 187 liters per hectare (L/ha). Formulated compounds were applied to the plant material with an overhead Mandel track sprayer equipped with 8002E nozzles calibrated to deliver 187 L/ha over an application area of 0.503 square meters at a spray height of 18 inches (43 cm) above the average plant canopy height. Control plants were sprayed in the same manner with the solvent blank.
(§3) The treated plants and control plants were placed in a greenhouse as described above and watered by subirrigation to prevent wash-off of the test compounds. After 21 d, the condition of the test plants as compared with that of the untreated plants was determined visually and scored on a scale of 0 to 100 percent where 0 corresponds to no injury and 100 corresponds to complete kill.
(§4) By applying the well-accepted probit analysis as described by J. Berkson in Journal of the American Statistical Society, 48, 565 (1953) and by D. Finney in “Probit Analysis” Cambridge University Press (1952), herbicidal injury of a specific compound at various rates can be used to calculate GR20, GR50, GR80 and GR90 values, which are defined as growth reduction factors that correspond to the effective dose of herbicide required to provide plant growth reduction (GR) of 20 percent, 50 percent, 80 percent and 90 percent, respectively. Probit analysis was applied to data collected from multiple dose rates of individual compounds utilizing the procedures explained in the following examples. The analysis of those dose rates is captured in the following tables.

[2] = tested on: APESV: bentgrass (Apera spica-venti); test: as above; format: in vivo; settings: Table 9, 21 d; for pest or weed control at 35 g/ha / pest or weed control at 70 g/ha / pest or weed control at 140 g/ha: Apera spica-venti, post-emergence, 504 h, post-emergent, read-out: Visual Growth Reduction (%) 21 Days After Application APESV; for pest or weed control at 35 g/ha: 35 g ai/ha; for pest or weed control at 70 g/ha: 70 g ai/ha; for GR50 APESV: dose for 50 percent growth reduction; for GR50 APESV / GR80 APESV: probit analysis; for GR80 APESV: dose for 80 percent growth reduction; for pest or weed control at 140 g/ha: 140 g ai/ha
Experimental: as §1, §2, §3, §4

[3] = as above; format: in vivo, Lolium multiflorum, Lolium rigidum; settings: Lolium multiflorum, post-emergence, 504 h, Table 9, post-emergent, 21 d, read-out: Visual Growth Reduction (%) 21 Days After Application LOLSS; for pest or weed control at 35 g/ha: 35 g ai/ha; for pest or weed control at 70 g/ha: 70 g ai/ha; for pest or weed control at 140 g/ha: 140 g ai/ha
Experimental: as §1, §2, §3, §4

[4] = tested on: TRZSS: wheat, including spring and winter (Triticum aestivum); test: as above; format: in vivo; settings: Table 9, 21 d; for GR20 TRZSS: dose for 20 percent growth reduction, probit analysis; for pest or weed control at 35 g/ha / pest or weed control at 70 g/ha / pest or weed control at 140 g/ha: Triticum aestivum, post-emergence, 504 h, post-emergent, read-out: Visual Growth Reduction (%) 21 Days After Application TRZSS; for pest or weed control at 35 g/ha: 35 g ai/ha; for pest or weed control at 70 g/ha: 70 g ai/ha; for pest or weed control at 140 g/ha: 140 g ai/ha
Experimental: as §1, §2, §3, §4

[5] = tested on: KCHSC: kochia (Kochia scoparia); test: as above; format: in vivo; settings: Table 9, 21 d; for pest or weed control at 35 g/ha / pest or weed control at 70 g/ha / pest or weed control at 140 g/ha: Bassia scoparia, post-emergence, 504 h, post-emergent, read-out: Visual Growth Reduction (%) 21 Days After Application KCHSC; for pest or weed control at 35 g/ha: 35 g ai/ha; for pest or weed control at 70 g/ha: 70 g ai/ha; for GR50 KCHSC: dose for 50 percent growth reduction; for GR50 KCHSC / GR80 KCHSC: probit analysis; for GR80 KCHSC: dose for 80 percent growth reduction; for pest or weed control at 140 g/ha: 140 g ai/ha
Experimental: as §1, §2, §3, §4

[6] = tested on: SETVI: green foxtail (Setaria viridis); test: as above; format: in vivo; settings: Table 9, 21 d; for pest or weed control at 35 g/ha / pest or weed control at 70 g/ha / pest or weed control at 140 g/ha: Setaria viridis, post-emergence, 504 h, post-emergent, read-out: Visual Growth Reduction (%) 21 Days After Application SETVI; for pest or weed control at 35 g/ha: 35 g ai/ha; for pest or weed control at 70 g/ha: 70 g ai/ha; for GR50 SETVI: dose for 50 percent growth reduction; for GR50 SETVI / GR80 SETVI: probit analysis; for GR80 SETVI: dose for 80 percent growth reduction; for pest or weed control at 140 g/ha: 140 g ai/ha
Experimental: as §1, §2, §3, §4

[7] = tested on: HORSS: barley, including spring and winter (Hordeum vulgare); test: as above; format: in vivo; settings: Table 9, 21 d; for pest or weed control at 35 g/ha / pest or weed control at 70 g/ha / pest or weed control at 140 g/ha: Hordeum vulgare, post-emergence, 504 h, post-emergent, read-out: Visual Growth Reduction (%) 21 Days After Application HORSS; for pest or weed control at 35 g/ha: 35 g ai/ha; for pest or weed control at 70 g/ha: 70 g ai/ha; for GR20 HORSS: dose for 20 percent growth reduction, probit analysis; for pest or weed control at 140 g/ha: 140 g ai/ha
Experimental: as §1, §2, §3, §4

Structure (SMILES) | GR50 LOLSS [1] [g ai/ha] | GR80 LOLSS [1] [g ai/ha] | pest or weed control at 35 g/ha [2] [%] | pest or weed control at 70 g/ha [2] [%] | GR50 APESV [2] [g ai/ha] | GR80 APESV [2] [g ai/ha] | pest or weed control at 35 g/ha [3] [%] | pest or weed control at 70 g/ha [3] [%] | GR20 TRZSS [4] [g ai/ha] | pest or weed control at 35 g/ha [4] [%] | pest or weed control at 70 g/ha [4] [%] | pest or weed control at 35 g/ha [5] [%] | pest or weed control at 70 g/ha [5] [%] | GR50 KCHSC [5] [g ai/ha] | GR80 KCHSC [5] [g ai/ha] | pest or weed control at 35 g/ha [6] [%] | pest or weed control at 70 g/ha [6] [%] | GR50 SETVI [6] [g ai/ha] | GR80 SETVI [6] [g ai/ha] | pest or weed control at 35 g/ha [7] [%] | also measured
C#Cc1ccc(-c2nc(C(=O)O)c(C=C)c(N)c2F)cc1 [Compound 36] | >140 | >140 | 0 to 29 | 0 to 29 | >140 | >140 | 0 to 29 | 0 to 29 | 1 | 75 to 84 | 75 to 84 | 0 to 29 | 0 to 29 | >140 | >140 | 0 to 29 | 30 to 44 | 126 | >140 | 30 to 44 | pest or weed control at 70 g/ha [7]: 60 to 74%; GR20 HORSS [7]: 16 g ai/ha
Nc1c(F)c(-c2cc(F)c(Br)cc2F)nc(C(=O)O)c1Cl [Compound 42, 4-amino-6-(4-bromo-2,5-difluorophenyl)-3-chloro-5-fluoropicolinic acid] | 76 | >140 | 85 to 94 | 85 to 94 | 7 | 22 | 30 to 44 | 45 to 59 | 1 | 85 to 94 | 85 to 94 | 85 to 94 | 60 to 74 | 1 | 1 | 85 to 94 | 85 to 94 | 1 | 19 | 85 to 94 | pest or weed control at 140 g/ha [2]: 95 to 100%; pest or weed control at 140 g/ha [3]: 75 to 84%; pest or weed control at 140 g/ha [4]: 95 to 100%; pest or weed control at 140 g/ha [5]: 95 to 100%; pest or weed control at 140 g/ha [6]: 95 to 100%; pest or weed control at 70 g/ha [7]: 85 to 94%; pest or weed control at 140 g/ha [7]: 95 to 100%; GR20 HORSS [7]: 1 g ai/ha
Nc1c(Cl)c(C(=O)O)nc(-c2ccc(C(F)(F)F)c(F)c2)c1Cl [Compound 146] | >140 | >140 | 95 to 100 | 95 to 100 | 23 | 34 | 0 to 29 | 0 to 29 | 1 | 75 to 84 | 85 to 94 | 0 to 29 | 0 to 29 | >140 | >140 | 45 to 59 | 75 to 84 | 41 | 76 | 75 to 84 | pest or weed control at 140 g/ha [2]: 95 to 100%; pest or weed control at 140 g/ha [3]: 0 to 29%; pest or weed control at 140 g/ha [4]: 85 to 94%; pest or weed control at 140 g/ha [5]: 0 to 29%; pest or weed control at 140 g/ha [6]: 95 to 100%; pest or weed control at 70 g/ha [7]: 85 to 94%; pest or weed control at 140 g/ha [7]: 95 to 100%; GR20 HORSS [7]: 1 g ai/ha
C=Cc1c(C(=O)O)nc(-c2ccc(C#N)cc2)c(F)c1N [Compound 150] | >140 | >140 | 0 to 29 | 0 to 29 | >140 | >140 | 0 to 29 | 0 to 29 | 1 | 60 to 74 | 60 to 74 | 60 to 74 | 60 to 74 | 7 | >140 | 0 to 29 | 30 to 44 | 79 | >140 | 30 to 44 | pest or weed control at 70 g/ha [7]: 45 to 59%; GR20 HORSS [7]: 8 g ai/ha
